Test results published in patent US20210251226A1, “METHOD AND COMPOSITION FOR INHIBITING THE GROWTH OF PSEUDOMONAS SYRINGAE ON A PLANT MATERIAL, AND KIT FOR TREATING THE SAME” (City University of Hong Kong, priority 2020, published 2021).

How the values were obtained:
P. syringae [1] = settings: conventional agent, comparison; cited from earlier work
bean leaf = experiment: Toxicity to host plant leaves after injection
Protocol: Furthermore, to study whether the optimized NaAc recipe is toxic to a host plant, aqueous solutions of 0.1 mM FeAc, 100 mM NaAc, and the optimized recipe (1 mM NaAc and 0.1 mM FeAc) were respectively injected into tomato and bean leaves and inoculated for 6 days.

wild-type P. syringae [2] = tested on: wild-type P. syringae
P. syringae [3] = experiment: Toxicity to P. syringae liquid culture (CFU count); settings: liquid culture treated 2 hours
Protocol: To study whether the optimized NaAc recipe is toxic to P. syringae, a P. syringae liquid culture was treated with 0.1 mM FeAc, 100 mM NaAc, and the optimized recipe (1 mM NaAc and 0.1 mM FeAc) respectively for 2 hours. The treated and control (untreated) cultures were then diluted for counting bacterial CFUs.

wild-type P. syringae [4] = settings: 10 mM NaAc, 6 days after inoculation, 2×10^4 CFU/ml
[5] = tested on: wild-type P. syringae pv. tomato; settings: 6 day post inoculation
Protocol: To study the effect of concentration of NaAc on inhibiting growth of P. syringae, 2×10^4 CFU/ml of wild-type P. syringae pv. tomato bacteria were injected into the tomato leaves. Then, the inoculated leaves were sprayed with water and 0.1-100 mM NaAc. Three 1 cm^2 leaf disks at 6 day post inoculation were homogenated and diluted in water to count bacterial CFUs.

hrpL = experiment: hrpL-lux activity (hrpL expression) in wild-type P. syringae; assay type: cell-based; settings: 1 mM of each salt
Protocol: To study the inhibitory effect of different acetate salts to inhibit P. syringae, 1 mM of 12 acetate salts was tested on the expression of hrpL, namely on hrpL-lux activities, in the wild-type P. syringae. The 12 acetate salts included acetate salts of lithium (Li), potassium (K), magnesium (Mg), sodium (Na), calcium (Ca), manganese (Mn), aluminium (Al), nickel (Ni), acetic acid (denoted as HAc), copper (Cu), ammonium (NH4), and iron (Fe).

O=S(=O)([O-])[O-].[Cu+2] [copper sulfate]
minimum inhibitory concentration (MIC) (P. syringae [1]): 3 mM

CC(=O)[O-].[Na+] [NaAc, sodium acetate]
toxicity to host plant leaf (bean leaf; injected into leaf, 6 days): not toxic | toxicity or resistance on plant (bean leaf; plant): no toxicity or resistance on plant | bacterial pathogenicity (disease symptoms) on tomato leaf (wild-type P. syringae [2]; 10 mM NaAc, 6 days after inoculation, 2×10^4 CFU/ml): significantly reduced bacterial pathogenicity | concentration removing infection symptom (wild-type P. syringae [2]; host plant not named at this place): 10 mM | toxicity to P. syringae (P. syringae [3]): not toxic | bacterial pathogenicity (disease symptoms) on bean leaf (wild-type P. syringae [4]): significantly reduced bacterial pathogenicity | difference in bacterial CFU between water control and NaAc spray ([5]; tomato leaf, 0.1-100 mM spray, P<0.05): significant | best concentration for reducing bacterial growth ([5]; tomato, of concentrations from 0.1 mM to 100 mM): 100 mM

[H]/N=C(/N)N[C@H]1[C@H](O)[C@@H](O)[C@H](O[C@@H]2O[C@@H](C)[C@](O)(C=O)[C@H]2O[C@@H]2O[C@@H](CO)[C@H](O)[C@@H](O)[C@@H]2NC)[C@@H](N/C(N)=N\[H])[C@@H]1O [streptomycin]
minimum inhibitory concentration (MIC) (P. syringae [1]): 1 mg/mL

CC(=O)[O-].CC(=O)[O-].[Fe+2] [iron acetate]
inhibitory effect on hrpL-lux activities, rank among 12 acetate salts (hrpL): best inhibitory effect
